Patent publication US5541190A, “Benzo(F)quinolinones” (priority 1995, dated 1996)

Molecular target: T1, 5α-reductase (Homo sapiens, UniProt P18405)
T1 construct: host or cells: Hs68 human genital skin fibroblasts
T1 sequence (P18405 1-259): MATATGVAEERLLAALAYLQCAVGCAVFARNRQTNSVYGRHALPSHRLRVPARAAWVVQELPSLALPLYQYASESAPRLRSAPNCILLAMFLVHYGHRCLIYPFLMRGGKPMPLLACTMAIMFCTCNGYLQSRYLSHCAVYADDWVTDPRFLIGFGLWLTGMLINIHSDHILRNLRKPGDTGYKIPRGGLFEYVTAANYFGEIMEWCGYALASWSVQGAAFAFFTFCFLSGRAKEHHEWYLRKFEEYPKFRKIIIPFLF
Experiment: Inhibition of 5α-reductase activity (testosterone to 5α-dihydrotestosterone conversion) in Hs68 human genital skin fibroblasts
Format: cell-based
Settings: 12 μM testosterone substrate, four hours; for inhibition at 1 µM: 1.00 μM test compound; for inhibition at 0.316 µM: 0.316 μM test compound; for inhibition at 15 µM: 15.00 μM test compound
Method: Cell Culture:5α-Reductase activity was measured using Hs68 human genital skin fibroblasts which were originally purchased from the American Type Culture Collection (Rockville, Md.). The cells were grown in Dulbecco's Modified Eagle's Medium (DMEM) plus 10% stripped fetal bovine serum which was supplemented with amphotericin B (0.25 mg/ml) and gentamicin (25.0 mg/ml) (GIBCO, Grand Island, N.Y.). The serum was stripped of endogenous steroids by incubation with dextran-coated charcoal prior to its addition to the media. The cells were maintained at 37° C. in an atmosphere of 95% air, 5% CO2 and were passaged every 7-10 days by exposure to a trypsin-EDTA solution (0.025% trypsin, 0.265 mM EDTA). Prior to the assay the Hs68 cells were harvested and plated in Falcon 6-well plates (Becton Dickinson Labware, Lincoln Park, N.J.) at a density of 6×10^4 cells per well. The cells were allowed to grow for 4-5 days or until they reached approximately 80% confluence.
Assay Method I:The substrate was prepared by dissolving unlabeled testosterone (Sigma Chemical Co., St. Louis, Mo.) in absolute ethanol followed by the addition of [7-^3 H (N)]-testosterone (23.3 Ci/mmole, New England Nuclear, Boston, Mass.). The steroid solution was taken to dryness under a stream of nitrogen and then reconstituted in media.
Assay Method II:The substrate used for this method was [^14 C]-testosterone (50 mCi/mmol) (New England Nuclear, Boston, Mass.). An aliquot of the substrate was taken to dryness under a stream of nitrogen. After the addition of 30 μl of ethanol, the testosterone was dissolved in an appropriate volume of media.
Sample Preparation:The test compounds were brought up in absolute ethanol in order to achieve the desired concentration. Subsequent dilutions of the test compounds with media were performed by the Biomek 1000 Automated Laboratory Workstation (Beckman Instruments, Palo Alto, Calif.). The existing media in the sample wells was aspirated and replaced with fresh media. Test compound was then added to the wells followed by the addition of 0.5 ml of substrate. The volume of the incubation mixture was maintained at 2.0 ml. The final substrate concentration was 12 μM. The concentration of the test compounds ranged from 0.001-150 μM. An additional three wells (background) containing media and substrate but no cells were also included to account for the non-enzymatic metabolism of the substrate. The plates were returned to the incubator and incubated for four hours.
At the end of the incubation the media was collected and transferred to an extraction tube containing 5 ml of toluene-ethanol (9:1), to which has been added 20-250 μg each. of unlabeled carrier steroids (estriol, estradiol, estrone, 5α-androstan-3α,17β-diol, 5α-androstan-3β,17β-diol, -androstene-3,17-dione, 5α-androstan-3,17-dione, testosterone, and 5α-dihydrotestosterone) (Steraloids, Inc., Wilton, N.H.). In the case of Assay Method I the extraction tube also contained 1,000 and 10,000 dpm of [4-^14 C]-dihydrotestosterone (50-60 mCi/mmol) and [4-^14 C]-testosterone (50 mCi/mmol) (New England Nuclear, Boston, Mass.), respectively. The [^14 C]-steroids were included as recovery standards to quantify procedural losses. A small amount of NaCl was also added to the extraction tubes to prevent foaming. The samples were vortexed for approximately 30 seconds and then centrifuged for 10 minutes at 500×g. The organic phase was collected and the samples taken to dryness, redissolved in dichloromethane-methanol (9:1) and were analyzed by thin layer chromatography using one of the methods described below.
Chromatography Method I (two-dimensional):The extracted samples were appled to silica gel 60F254, 0.25 mm thick, thin layer chromatography plates (EM Science, Cincinnati, Ohio). The plates were developed in the first dimension with a solvent system containing dichloromethaneethyl acetate-methanol-acetic acid (160:38:1.5:0.5, Mallinckrodt Inc., Paris, Ky.).

SMILES	inhibition at 1 µM [%]	inhibition at 0.316 µM [%]	other results
CN1C(=O)CC[C@H]2c3ccc(Cl)cc3CC[C@@H]21 (relative stereo) [Example 6, trans-dl-8-chloro-4-methyl-1,2,3,4,4a,5,6,10b-octahydrobenzo[f]quinolin-3-one]	100	–	–
CN1C(=O)CC[C@H]2c3ccccc3CC[C@@H]21 (relative stereo) [Example 12, trans-dl-4-methyl-1,2,3,4,4a,5,6,10b-octahydrobenzo[f]quinolin-3-one]	78.7	–	–
CN1C(=O)CC[C@H]2c3ccccc3CC[C@H]21 (relative stereo) [Example 13, cis-dl-4-methyl-1,2,3,4,4a,5,6,10b-octahydrobenzo[f]quinolin-3-one]	32	–	–
C[C@@H]1C[C@@H]2c3ccc(Cl)cc3CC[C@H]2N(C)C1=O (relative stereo) [Example 26A, trans-dl-8-chloro-2-(α-methyl)-4-methyl-1,2,3,4,4a,5,6,10b-octahydrobenzo[f]quinolin-3-one]	–	82.6	–
C[C@H]1C[C@@H]2c3ccc(Cl)cc3CC[C@H]2N(C)C1=O (relative stereo) [Example 26B, trans-dl-8-chloro-2-(β-methyl)-4-methyl-1,2,3,4,4a,5,6,10b-octahydrobenzo[f]quinolin-3-one]	–	76.4	–
CN1C(=O)CC[C@H]2c3ccc(Br)cc3C(C)(C)C[C@@H]21 (relative stereo) [Example 28, trans-dl-8-bromo-4,6,6-trimethyl-1,2,3,4,4a,5,6,10b-ocathydrobenzo[f]quinolin-3-one]	–	78	–
CN1C(=O)CC[C@H]2c3ccc(Br)cc3C(C)(C)C[C@H]21 (relative stereo) [Example 29, cis-dl-8-bromo-4,6,6-trimethyl-1,2,3,4,4a,5,6,10b-octahydrobenzo[f]quinolin-3-one]	–	56.1	–
CN1C(=O)CC[C@]2(C)c3ccc(Cl)cc3CC[C@H]12 (relative stereo) [Example 35, cis-dl-8-chloro-4,10b-dimethyl-1,2,3,4,4a,5,6,10b-octahydrobenzo[f]quinolin-3-one]	76.2	–	–
CN1C(=O)CC[C@@]2(C)c3ccccc3CC[C@H]12 (relative stereo) [Example 37, trans-dl-4,10b-dimethyl-1,2,3,4,4a,5,6,10b-octahydrobenzo[f]quinolin-3-one]	40	–	–
C[C@]12CCC(=O)N[C@@H]1CCc1cc(Cl)ccc12 (relative stereo) [Example 40, Trans-8-chloro-10b-methyl-1,2,3,4,4a,5,6,10-octhydrobenzo[f]-quinolin-3-one]	–	25.6	–
C[C@]12CCC(=O)N[C@H]1CCc1cc(Cl)ccc12 (relative stereo) [Example 41, cis-8-chloro-10b-methyl-1,2,3,4,4a,5,6,10-octahydrobenzo[f]quinolin-3-one]	–	–	inhibition at 15 µM: 58.4%
COc1ccc(CN2C(=O)CC[C@@]3(C)c4ccc(Cl)cc4CC[C@H]23)cc1 (relative stereo) [Example 44, Trans-4-(4-methoxybenzyl)-8-chloro-10b-methyl-1,2,3,4,4a,5,6,10b-octahydrobenzo[f]quinolin-3-one]	–	5.7	–
O=C1CC[C@H]2c3cc([N+](=O)[O-])ccc3CC[C@@H]2N1 (relative stereo) [Example 46, trans-dl-9-nitro-1,2,3,4,4a,5,6,10b-octahydrobenzo[f]quinolin-3-one]	–	–	inhibition at 15 µM: 69.9%
